Read-outs that look alike come from different tables or passages of the source.
Molecular target: T1, SIRT1 (Homo sapiens, UniProt Q96EB6)
T1 sequence (Q96EB6 1-747): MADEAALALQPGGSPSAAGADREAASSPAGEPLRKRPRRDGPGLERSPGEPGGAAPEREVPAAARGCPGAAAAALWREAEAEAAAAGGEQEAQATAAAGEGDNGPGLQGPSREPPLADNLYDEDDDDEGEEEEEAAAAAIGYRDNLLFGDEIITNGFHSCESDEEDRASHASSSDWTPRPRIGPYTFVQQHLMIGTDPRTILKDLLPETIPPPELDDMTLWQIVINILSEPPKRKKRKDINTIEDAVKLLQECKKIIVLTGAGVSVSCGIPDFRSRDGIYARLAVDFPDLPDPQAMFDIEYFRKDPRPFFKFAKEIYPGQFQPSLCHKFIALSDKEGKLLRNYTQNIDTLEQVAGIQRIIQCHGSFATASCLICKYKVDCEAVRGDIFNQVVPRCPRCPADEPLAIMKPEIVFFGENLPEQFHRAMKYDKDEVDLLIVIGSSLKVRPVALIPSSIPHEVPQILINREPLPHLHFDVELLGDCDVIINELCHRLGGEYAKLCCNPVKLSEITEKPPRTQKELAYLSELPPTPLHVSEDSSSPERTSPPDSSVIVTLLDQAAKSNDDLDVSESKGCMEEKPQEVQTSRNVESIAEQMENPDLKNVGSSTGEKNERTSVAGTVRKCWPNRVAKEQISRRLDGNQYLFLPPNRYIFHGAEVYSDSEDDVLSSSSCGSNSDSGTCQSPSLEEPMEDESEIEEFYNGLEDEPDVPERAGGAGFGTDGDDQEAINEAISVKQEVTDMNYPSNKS
Experiment: Mass spectrometry based SIRT1 deacetylase activation assay (acetylated p53-derived peptide substrate)
Format: biochemical

[1] = 0.5 μM peptide substrate, 120 μM βNAD+, 10 nM SIRT1, 25 min at 25° C.
[2] = 0.5 μM peptide substrate, 120 μM βNAD+, 10 nM SIRT1, 25 min at 25° C., read-out: EC1.5
[3] = 0.5 μM peptide substrate, 120 μM βNAD+, 10 nM SIRT1, 25 minutes at 25° C.

Fold Act. (percent maximum fold activation) [1]	EC1.5 [2] [nM]	EC1.5 [3]	Fold Act. (percent maximum fold activation) [3]	SMILES	other results
A (Fold activation >200%)	< 1000	–	–	Cc1cnc(NC(=O)c2cccc3[nH]c(-c4ccc(Cl)cc4C(F)F)nc23)s1 [Compound 563]	–
A (Fold activation >200%)	1000 to 25000	–	–	Cc1cc(NC(=O)c2cccc3[nH]c(-c4ccccc4OCCN4CCOCC4)nc23)n(C)n1 [Compound 487]	–
A (Fold activation >200%)	1000 to 25000	–	–	O=C(Nc1cccnc1)c1cccc2[nH]c(-c3ccc(OC4CCNCC4)cc3)nc12 [Compound 536]	–
A (Fold activation >200%)	< 1000	–	–	O=C(Nc1nccs1)c1cccc2[nH]c(-c3cc(N4CCOCC4)ccc3C(F)(F)F)nc12 [Compound 448]	–
A (Fold activation >200%)	< 1000	–	–	O=C(Nc1ccccn1)c1cccc2[nH]c(-c3ccc(OCC(O)CO)cc3C(F)F)nc12 (centres unmarked) [Compound 558]	–
–	–	–	–	O=C(Nc1cccnc1)c1cccc2[nH]c(-c3cccc(C(F)(F)F)c3)nc12 [Compound 234]	EC1.5: A (EC1.5<1.0 uM); Fold Act. (percent maximum fold activation): A (Fold activation >200%)
–	–	A (EC1.5<1.0 uM)	A (Fold activation >200%)	O=C(Nc1ccc(CN2CCOCC2)cn1)c1cccc2[nH]c(-c3ccccc3C(F)(F)F)nc12 [Compound 673]	–
–	–	A (EC1.5<1.0 uM)	A (Fold activation >200%)	COc1cc(C(=O)Nc2ccccn2)c2nc(-c3ccccc3C(F)(F)F)[nH]c2c1 [Compound 632, 6-methoxy-N-(pyridin-2-yl)-2-(2-(trifluoromethyl)phenyl)-1H-benzo[d]imidazole-4-carboxamide]	–
–	–	B (EC1.5 1-25 uM)	B (Fold Activation <200%)	CC1(C)CN(CCOc2ccccc2-c2nc3c(C(=O)Nc4ccccn4)cccc3[nH]2)CCO1 [Compound 712]	–
–	–	–	–	O=C(Nc1cccnc1)c1cccc2[nH]c(-c3cccc(N4CCOCC4)n3)nc12 [Compound 389]	EC1.5: B (EC1.5 1-25 uM); Fold Act. (percent maximum fold activation): A (Fold activation >200%)
A (Fold activation >200%)	< 1000	–	–	Cc1nc(NC(=O)c2cccc3[nH]c(-c4cnc5c(c4)OCCN5C)nc23)sc1C [Compound 458]	–
–	–	A (EC1.5<1.0 uM)	A (Fold activation >200%)	CC1(C)CN(CCOc2ccccc2-c2nc3c(C(=O)Nc4nccs4)cccc3[nH]2)CCO1 [Compound 711]	–
A (Fold activation >200%)	1000 to 25000	–	–	CC1(C)Cc2cc(-c3nc4c(C(=O)Nc5nccs5)cccc4[nH]3)ccc2O1 [Compound 445]	–
–	–	B (EC1.5 1-25 uM)	A (Fold activation >200%)	O=C(Nc1ccccn1)c1cccc2nc(-c3ccc(N4CCCC4)cc3C(F)F)[nH]c12 [Compound 766]	–
A (Fold activation >200%)	1000 to 25000	–	–	Cc1cc(Cl)cc(-c2nc3c(C(=O)Nc4nccs4)cccc3[nH]2)c1OCCN1CCOCC1 [Compound 505]	–
–	–	A (EC1.5<1.0 uM)	A (Fold activation >200%)	O=C(Nc1cccc(OC[C@@H](O)CO)c1)c1cccc2[nH]c(-c3ccc(F)cc3C(F)F)nc12 [Compound 718]	–
B (Fold Activation <200%)	1000 to 25000	–	–	O=C(Nc1nccs1)c1cccc2[nH]c(-c3ccc(F)cc3OCCN3CCOCC3)nc12 [Compound 503]	–
B (Fold Activation <200%)	> 25000	–	–	O=C(NC1CCNCC1)c1cccc2[nH]c(-c3cc(F)ccc3C(F)(F)F)nc12 [Compound 438]	–
–	–	A (EC1.5<1.0 uM)	A (Fold activation >200%)	O=C(Nc1ccc(CN2CCCC2)nc1)c1cccc2[nH]c(-c3ccccc3C(F)(F)F)nc12 [Compound 683]	–
–	–	–	–	O=C(Nc1nccs1)c1cccc2[nH]c(-c3ncccc3C(F)(F)F)nc12 [Compound 296]	EC1.5: B (EC1.5 1-25 uM); Fold Act. (percent maximum fold activation): A (Fold activation >200%)
–	–	A (EC1.5<1.0 uM)	A (Fold activation >200%)	O=C(Nc1cccc(OC[C@@H](O)CO)c1)c1cncc2[nH]c(-c3ccc(Cl)cc3C(F)F)nc12 [Compound 716]	–
–	–	A (EC1.5<1.0 uM)	A (Fold activation >200%)	O=C(Nc1cccnc1)c1cc(N2CCOCC2)cc2[nH]c(-c3ccccc3C(F)F)nc12 [Compound 735]	–

Fold Act. (percent maximum fold activation) [1]	EC1.5 [2] [nM]	EC1.5 [3]	Fold Act. (percent maximum fold activation) [3]	SMILES	other results
–	–	–	–	O=C(Nc1nccs1)c1cccc2[nH]c(-c3ccccc3-c3ccccc3)nc12 [Compound 255]	EC1.5: B (EC1.5 1-25 uM); Fold Act. (percent maximum fold activation): A (Fold activation >200%)
–	–	A (EC1.5<1.0 uM)	A (Fold activation >200%)	O=C(Nc1nccs1)c1cncc2[nH]c(-c3ccc(N4CCCC4)cc3C(F)F)nc12 [Compound 799]	–
–	–	A (EC1.5<1.0 uM)	A (Fold activation >200%)	O=C(Nc1ccccn1)c1cncc2[nH]c(-c3ccc(N4CCOCC4)cc3C(F)F)nc12 [Compound 806]	–
–	–	A (EC1.5<1.0 uM)	A (Fold activation >200%)	Cc1cnc(NC(=O)c2cccc3nc(-c4ccc(N5CCCC5)cc4C(F)F)[nH]c23)s1 [Compound 765]	–
A (Fold activation >200%)	< 1000	–	–	Cc1cnc(NC(=O)c2cccc3[nH]c(-c4ccc(N5CCOCC5)cc4C(F)(F)F)nc23)s1 [Compound 549]	–
–	–	–	–	O=C(Nc1nccs1)c1cccc2[nH]c(-c3cccc(Cl)c3F)nc12 [Compound 257]	EC1.5: B (EC1.5 1-25 uM); Fold Act. (percent maximum fold activation): A (Fold activation >200%)
–	–	A (EC1.5<1.0 uM)	A (Fold activation >200%)	O=C(Nc1cccc(CN2CCOCC2)n1)c1cccc2[nH]c(-c3cccc(F)c3)nc12 [Compound 851]	–
–	–	A (EC1.5<1.0 uM)	A (Fold activation >200%)	O=C(Nc1ccccc1)c1cccc2[nH]c(-c3ccc(Cl)cc3C(F)(F)F)nc12 [Compound 754]	–
B (Fold Activation <200%)	> 25000	–	–	O=C(Nc1nccs1)c1cccc2[nH]c(-c3ccccc3OCCN3CCC(F)(F)CC3)nc12 [Compound 579]	–
–	–	A (EC1.5<1.0 uM)	B (Fold Activation <200%)	O=C(Nc1ccccn1)c1cccc2[nH]c(-c3cc(N4CC[C@@H](F)C4)ccc3C(F)(F)F)nc12 [Compound 668]	–
A (Fold activation >200%)	< 1000	–	–	O=C(Nc1cccnc1)c1cccc2[nH]c(-c3cc(N4CCOCC4)ccc3C(F)(F)F)nc12 [Compound 450, 2-(5-morpholino-2-(trifluoromethyl)phenyl)-N-(pyridin-3-yl)-1H-benzo[d]imidazole-4-carboxamide]	–
–	–	A (EC1.5<1.0 uM)	A (Fold activation >200%)	O=C(Nc1ccccc1)c1cccc2[nH]c(-c3ccc(F)cc3C(F)(F)F)nc12 [Compound 755]	–
A (Fold activation >200%)	1000 to 25000	–	–	CN1CCOc2cc(-c3nc4c(C(=O)Nc5cnccn5)cccc4[nH]3)cnc21 [Compound 473]	–
–	–	–	–	O=C(Nc1cccnc1)c1cccc2[nH]c(-c3cccc(-c4nnn[nH]4)c3)nc12 [Compound 362]	EC1.5: A (EC1.5<1.0 uM); Fold Act. (percent maximum fold activation): A (Fold activation >200%)
–	–	B (EC1.5 1-25 uM)	B (Fold Activation <200%)	O=C(Nc1ccccn1)c1cccc2[nH]c(-c3ccccc3OCCN3CCC(F)(F)CC3)nc12 [Compound 613]	–
–	–	–	–	O=C(Nc1ccncc1)c1cccc2[nH]c(-c3cccc(C(F)(F)F)c3)nc12 [Compound 242]	EC1.5: B (EC1.5 1-25 uM); Fold Act. (percent maximum fold activation): B (Fold Activation <200%)
A (Fold activation >200%)	1000 to 25000	–	–	CC(C)(C)NCCOc1ccccc1-c1nc2c(C(=O)Nc3nccs3)cccc2[nH]1 [Compound 580]	–
–	–	A (EC1.5<1.0 uM)	A (Fold activation >200%)	O=C(Nc1cccnc1)c1cc(N2CCOCC2)cc2[nH]c(-c3ccc(Cl)cc3C(F)(F)F)nc12 [Compound 642]	–
A (Fold activation >200%)	< 1000	–	–	Cc1cc(NC(=O)c2cccc3[nH]c(-c4ccccc4C(F)(F)F)nc23)no1 [Compound 481]	–
–	–	–	–	O=C(Nc1cccc[n+]1[O-])c1cccc2[nH]c(-c3ccc(Cl)cc3C(F)(F)F)nc12 [Compound 330]	EC1.5: B (EC1.5 1-25 uM); Fold Act. (percent maximum fold activation): A (Fold activation >200%)
–	–	–	–	Cc1nc(-c2ccccc2)c(-c2nc3c(C(=O)Nc4cccnc4)cccc3[nH]2)s1 [Compound 370]	EC1.5: A (EC1.5<1.0 uM); Fold Act. (percent maximum fold activation): A (Fold activation >200%)
